Source: PubChem BioAssay AID256 (DTP/NCI, 2004)
Where “and” joins values, the source holds several entries; their conditions need not be identical. Equal values may be shown once. Inconclusive results and toxic doses are left out.

Tested on: CD2F1 mice, L1210 leukemia ip, survival T/C
Assay: NCI In Vivo Anticancer Drug Screen. Data for tumor model L1210 Leukemia (intraperitoneal) in CD2F1 (CDF1) mice
Conditions: higher = longer survival
Outline: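 In this screen, transplantable tumors were grown in mice given either the compound or its vehicle. Results were expressed as the treated measurement relative to the control measurement.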

[1] = endpoint: mean survival time, dose: 100.0 mg/kg/injection, schedule: Q01DX009 (ip), vehicle: saline with Tween-80
[2] = endpoint: mean survival time, dose: 200.0 mg/kg/injection, schedule: Q01DX009 (ip), vehicle: saline with Tween-80

SMILES: Nc1ncn(C2OC(CO)C(O)C2O)c(=O)n1 (centres undefined)
- T/C (endpoint: mean survival time, dose: 1.56 mg/kg/injection, schedule: Q01DX009 (ip), vehicle: saline): 155 % of control and 166 % of control
- T/C (endpoint: mean survival time, dose: 1.56 mg/kg/injection, schedule: Q04DX003 (ip), vehicle: saline): 117 % of control
- T/C (endpoint: mean survival time, dose: 3.12 mg/kg/injection, schedule: Q01DX009 (ip), vehicle: saline): 176 % of control
- T/C (endpoint: mean survival time, dose: 3.12 mg/kg/injection, schedule: Q03HX024 (ip), vehicle: saline): 296 % of control
- T/C (endpoint: mean survival time, dose: 3.12 mg/kg/injection, schedule: Q04DX003 (ip), vehicle: saline): 119 % of control and 120 % of control and 123 % of control
- T/C (endpoint: mean survival time, dose: 6.25 mg/kg/injection, schedule: Q03HX024 (ip), vehicle: saline): 325 % of control
- T/C (endpoint: mean survival time, dose: 6.25 mg/kg/injection, schedule: Q04DX003 (ip), vehicle: saline): 121 % of control and 123 % of control
- T/C (endpoint: mean survival time, dose: 10.0 mg/kg/injection, schedule: Q04DX003 (ip), vehicle: saline): 112 % of control
- T/C (endpoint: mean survival time, dose: 12.5 mg/kg/injection, schedule: Q03HX024 (ip), vehicle: saline): 353 % of control
- T/C (endpoint: mean survival time, dose: 12.5 mg/kg/injection, schedule: Q04DX003 (ip), vehicle: saline): 151 % of control
- T/C (endpoint: mean survival time, dose: 25.0 mg/kg/injection, schedule: Q03HX024 (ip), vehicle: saline): 295 % of control
- T/C (endpoint: mean survival time, dose: 25.0 mg/kg/injection, schedule: Q04DX003 (ip), vehicle: saline): 167 % of control
- T/C (endpoint: mean survival time, dose: 50.0 mg/kg/injection, schedule: Q03HX024 (ip), vehicle: saline): 248 % of control
- T/C (endpoint: mean survival time, dose: 50.0 mg/kg/injection, schedule: Q04DX003 (ip), vehicle: saline): 163 % of control and 173 % of control
- T/C (endpoint: mean survival time, dose: 100.0 mg/kg/injection, schedule: Q03HX024 (ip), vehicle: saline): 124 % of control
- T/C (endpoint: mean survival time, dose: 200.0 mg/kg/injection, schedule: Q04DX003 (ip), vehicle: saline): 182 % of control and 190 % of control and 200 % of control
- T/C (endpoint: mean survival time, dose: 400.0 mg/kg/injection, schedule: Q04DX003 (ip), vehicle: saline): 222 % of control
- T/C (endpoint: mean survival time, dose: 800.0 mg/kg/injection, schedule: Q04DX003 (ip), vehicle: saline): 269 % of control
- T/C (endpoint: mean survival time, dose: 1600.0 mg/kg/injection, schedule: Q04DX003 (ip), vehicle: saline): 222 % of control
- T/C (endpoint: median survival time, dose: 1.56 mg/kg/injection, schedule: Q01DX009 (ip), vehicle: other): 156 % of control
- T/C (endpoint: median survival time, dose: 2.3 mg/kg/injection, schedule: Q03HX024 (ip), vehicle: DMSO): 292 % of control
- T/C (endpoint: median survival time, dose: 3.12 mg/kg/injection, schedule: Q01DX009 (ip), vehicle: other): 163 % of control and 172 % of control
- T/C (endpoint: median survival time, dose: 3.12 mg/kg/injection, schedule: Q01DX009 (ip), vehicle: saline): 162 % of control and 177 % of control
- T/C (endpoint: median survival time, dose: 4.0 mg/kg/injection, schedule: Q03HX024 (ip), vehicle: saline): 348 % of control
- T/C (endpoint: median survival time, dose: 6.25 mg/kg/injection, schedule: Q01DX009 (ip), vehicle: DMSO): 210 % of control and 228 % of control
- T/C (endpoint: median survival time, dose: 6.25 mg/kg/injection, schedule: Q01DX009 (ip), vehicle: other): 192 % of control and 193 % of control
- T/C (endpoint: median survival time, dose: 6.25 mg/kg/injection, schedule: Q01DX009 (ip), vehicle: saline): 198 % of control and 202 % of control and 212 % of control
- T/C (endpoint: median survival time, dose: 6.25 mg/kg/injection, schedule: Q01DX009 (oral), vehicle: DMSO): 191 % of control
- T/C (endpoint: median survival time, dose: 7.0 mg/kg/injection, schedule: Q03HX008 (ip), vehicle: DMSO): 179 % of control
- T/C (endpoint: median survival time, dose: 11.2 mg/kg/injection, schedule: Q01DX005 (ip), vehicle: DMSO): 181 % of control
- T/C (endpoint: median survival time, dose: 11.2 mg/kg/injection, schedule: Q01DX005 (iv), vehicle: DMSO): 176 % of control
- T/C (endpoint: median survival time, dose: 12.5 mg/kg/injection, schedule: Q01DX009 (ip), vehicle: DMSO): 224 % of control and 258 % of control
- T/C (endpoint: median survival time, dose: 12.5 mg/kg/injection, schedule: Q01DX009 (ip), vehicle: other): 214 % of control and 219 % of control
- T/C (endpoint: median survival time, dose: 12.5 mg/kg/injection, schedule: Q01DX009 (oral), vehicle: DMSO): 225 % of control
- T/C (endpoint: median survival time, dose: 14.0 mg/kg/injection, schedule: Q03HX008 (ip), vehicle: DMSO): 174 % of control
- T/C (endpoint: median survival time, dose: 22.5 mg/kg/injection, schedule: Q01DX005 (ip), vehicle: DMSO): 187 % of control
- T/C (endpoint: median survival time, dose: 22.5 mg/kg/injection, schedule: Q01DX005 (iv), vehicle: DMSO): 201 % of control
- T/C (endpoint: median survival time, dose: 25.0 mg/kg/injection, schedule: Q01DX009 (ip), vehicle: DMSO): 260 % of control and 273 % of control
- T/C (endpoint: median survival time, dose: 25.0 mg/kg/injection, schedule: Q01DX009 (ip), vehicle: other): 237 % of control and 265 % of control
- T/C (endpoint: median survival time, dose: 25.0 mg/kg/injection, schedule: Q01DX009 (oral), vehicle: DMSO): 233 % of control
- T/C (endpoint: median survival time, dose: 28.1 mg/kg/injection, schedule: Q03HX008 (ip), vehicle: DMSO): 186 % of control
- T/C (endpoint: median survival time, dose: 30.0 mg/kg/injection, schedule: Q01DX009 (ip), vehicle: saline): 267 % of control and 278 % of control
- T/C (endpoint: median survival time, dose: 37.5 mg/kg/injection, schedule: Q04DX003 (ip), vehicle: DMSO): 163 % of control
- T/C (endpoint: median survival time, dose: 44.0 mg/kg/injection, schedule: Q01DX009 (ip), vehicle: saline): 278 % of control and 284 % of control
- T/C (endpoint: median survival time, dose: 45.0 mg/kg/injection, schedule: Q01DX005 (ip), vehicle: DMSO): 208 % of control
- T/C (endpoint: median survival time, dose: 45.0 mg/kg/injection, schedule: Q01DX005 (iv), vehicle: DMSO): 212 % of control
- T/C (endpoint: median survival time, dose: 50.0 mg/kg/injection, schedule: Q01DX009 (ip), vehicle: DMSO): 289 % of control and 310 % of control
- T/C (endpoint: median survival time, dose: 50.0 mg/kg/injection, schedule: Q01DX009 (ip), vehicle: other): 262 % of control and 289 % of control
- T/C (endpoint: median survival time, dose: 50.0 mg/kg/injection, schedule: Q01DX009 (oral), vehicle: DMSO): 266 % of control
- T/C (endpoint: median survival time, dose: 56.2 mg/kg/injection, schedule: Q01DX001 (ip), vehicle: DMSO): 123 % of control
- T/C (endpoint: median survival time, dose: 56.2 mg/kg/injection, schedule: Q03HX008 (ip), vehicle: DMSO): 191 % of control
- T/C (endpoint: median survival time, dose: 67.0 mg/kg/injection, schedule: Q01DX009 (ip), vehicle: saline): 326 % of control and 328 % of control
- T/C (endpoint: median survival time, dose: 75.0 mg/kg/injection, schedule: Q04DX003 (ip), vehicle: DMSO): 173 % of control
- T/C (endpoint: median survival time, dose: 90.0 mg/kg/injection, schedule: Q01DX005 (ip), vehicle: DMSO): 221 % of control
- T/C (endpoint: median survival time, dose: 90.0 mg/kg/injection, schedule: Q01DX005 (iv), vehicle: DMSO): 242 % of control
- T/C (endpoint: median survival time, dose: 100.0 mg/kg/injection, schedule: Q01DX009 (ip), vehicle: DMSO): 172 % of control
- T/C (endpoint: median survival time, dose: 100.0 mg/kg/injection, schedule: Q01DX009 (ip), vehicle: other): 150 % of control and 277 % of control
- T/C (endpoint: median survival time, dose: 100.0 mg/kg/injection, schedule: Q01DX009 (oral), vehicle: DMSO): 310 % of control
- T/C (endpoint: median survival time, dose: 112.5 mg/kg/injection, schedule: Q03HX008 (ip), vehicle: DMSO): 198 % of control
- T/C (endpoint: median survival time, dose: 150.0 mg/kg/injection, schedule: Q04DX003 (ip), vehicle: DMSO): 198 % of control
- T/C (endpoint: median survival time, dose: 180.0 mg/kg/injection, schedule: Q01DX005 (ip), vehicle: DMSO): 242 % of control
- T/C (endpoint: median survival time, dose: 180.0 mg/kg/injection, schedule: Q01DX005 (iv), vehicle: DMSO): 276 % of control
- T/C (endpoint: median survival time, dose: 200.0 mg/kg/injection, schedule: Q01DX009 (ip), vehicle: DMSO): 123 % of control
- T/C (endpoint: median survival time, dose: 225.0 mg/kg/injection, schedule: Q01DX001 (iv), vehicle: DMSO): 157 % of control
- T/C (endpoint: median survival time, dose: 225.0 mg/kg/injection, schedule: Q03HX008 (ip), vehicle: DMSO): 180 % of control
- T/C (endpoint: median survival time, dose: 300.0 mg/kg/injection, schedule: Q04DX003 (ip), vehicle: DMSO): 243 % of control
- T/C (endpoint: median survival time, dose: 400.0 mg/kg/injection, schedule: Q01DX009 (ip), vehicle: DMSO): 117 % of control
- T/C (endpoint: median survival time, dose: 400.0 mg/kg/injection, schedule: Q01DX009 (ip), vehicle: saline): 113 % of control
- T/C (endpoint: median survival time, dose: 400.0 mg/kg/injection, schedule: Q01DX009 (oral), vehicle: DMSO): 117 % of control
- T/C (endpoint: median survival time, dose: 600.0 mg/kg/injection, schedule: Q04DX003 (ip), vehicle: DMSO): 252 % of control
- T/C (endpoint: median survival time, dose: 900.0 mg/kg/injection, schedule: Q01DX001 (ip), vehicle: DMSO): 162 % of control
- T/C (endpoint: median survival time, dose: 1200.0 mg/kg/injection, schedule: Q04DX003 (ip), vehicle: DMSO): 284 % of control
- T/C (endpoint: median survival time, dose: 1800.0 mg/kg/injection, schedule: Q01DX001 (ip), vehicle: DMSO): 191 % of control
- T/C (endpoint: median survival time, dose: 2400.0 mg/kg/injection, schedule: Q04DX003 (ip), vehicle: DMSO): 290 % of control
- T/C (endpoint: median survival time, dose: 3600.0 mg/kg/injection, schedule: Q01DX001 (ip), vehicle: DMSO): 223 % of control

SMILES: CC(C)=C(C)c1ccccc1
- T/C (endpoint: mean survival time, dose: 50.0 mg/kg/injection, schedule: Q01DX009 (ip), vehicle: saline with Tween-80): 103 % of control
- T/C [1]: 106 % of control
- T/C [2]: 103 % of control

SMILES: CCC(CC)CN1CCSC1=S
- T/C [1]: 101 % of control
- T/C [2]: 101 % of control
- T/C (endpoint: mean survival time, dose: 400.0 mg/kg/injection, schedule: Q01DX009 (ip), vehicle: saline with Tween-80): 96 % of control

SMILES: CCCCCCCCCCCCOc1ccc(Cl)cc1
- T/C (endpoint: mean survival time, dose: 100.0 mg/kg/injection, schedule: Q04DX002 (ip), vehicle: saline with Tween-80): 90 % of control
- T/C (endpoint: mean survival time, dose: 200.0 mg/kg/injection, schedule: Q04DX002 (ip), vehicle: saline with Tween-80): 98 % of control
- T/C (endpoint: mean survival time, dose: 400.0 mg/kg/injection, schedule: Q04DX002 (ip), vehicle: saline with Tween-80): 90 % of control
